Laboratory results: patent USRE42748E1, “Oral DTPA for radionuclide chelation” (priority 2006, dated 2011)
Values joined by “and” are separate entries in the source; they are usually repeats but may differ in a detail not shown here. Identical values can stand only once.

Test: Bioavailability study after liquid dose of radiolabeled DTPA (14C) in male Sprague-Dawley rats (SRI Study B230-06)
Assay type: in vivo
Protocol: The objective of this study was to determine the oral bioavailability of Ca-DTPA using radioactive ^14C-DTPA tracer for detection in male Sprague Dawley rats after oral administration in several different formulations. After oral gavage of Ca-DTPA or DTPA (free acid) in sterile water, the oral bioavailability of DTPA is estimated to be about 7% in these two treatment groups. […] In Group 7, which also was administered DTPA in 20% Labrasol (+Quinidine pretreatment), the mean bioavailability was 10%, but this group had greater interindividual variability than seen in the other treatment groups.

| SMILES | inhibition of efflux transport of DTPA (0.15 mM quinidine 20 min before DTPA in 20% Labrasol, inferred from rat #19) | % Bioavailability Mean ± SD (Group 3 Oral, water) [%] | AUC0→last Mean ± SD (Group 3 Oral, water, 16.38 mg-equiv DTPA/Kg, 6 hr) | AUC0→last (Group 3 Oral, water, 16.38 mg-equiv DTPA/Kg, last time point 6 hr, individual rats) | % Bioavailability (Group 3 Oral, water, individual rats) | % Bioavailability Mean ± SD (Group 3 Oral, water, listed as DTPA (free acid)) |
| --- | --- | --- | --- | --- | --- | --- |
| C=C[C@H]1C[N@@]2CC[C@H]1C[C@@H]2[C@@H](O)c1ccnc2ccc(OC)cc12 [quinidine] | active in inhibiting efflux transport of DTPA |  |  |  |  |  |
| O=C(O)CN(CCN(CC(=O)O)CC(=O)O)CCN(CC(=O)O)CC(=O)O [free acid DTPA] |  | 6.80 ± 1.66 | 1.21 ± 0.29 Hr * ( ng/ml) | 1.4708 Hr * ( ng/ml) and 0.8897 Hr * ( ng/ml) and 1.2594 Hr * ( ng/ml) | 8.29% and 5.02% and 7.10% | about 7% |
